Measurements from patent US11339157B1, “4H-pyrrolo[3,2-c]pyridin-4-one derivatives” (Bayer Aktiengesellschaft, priority 2017, dated 2022).
Several values for one entry are separate records, joined by “and”; a condition that tells them apart may be missing. Equal entries are not always repeated. Blank lines part the entries; values can stand above or below the compound they belong to.

How the values were obtained:
Ba/F3-EGFR-WT cells = experiment: Proliferation assay in BA/F3 (wild type) cells (Cell Titer-Glo); type: cell-based
Procedure: (§1) Cellular Data Description (WT, insSVD, Ins ASV)
(§2) Plates were incubated at 37° C. for 48 h. Retrovirus was harvested by filtering the media supernatant through a 0.45 μm filter.
(§3) Ba/F3 cells purchased from DSMZ were grown in RPMI+10% FBS+10 ng/mL IL-3 and infected with filtered retroviral supernatant at a 1:2 dilution. Polybrene was added to a concentration of 8 μg/mL, plates were spun for 90 min, and incubated overnight at 37° C. 2 μg/mL puromycin was added to the infected cells 24 h after infection and cells were continually grown in the presence of puromycin and 10 ng/mL IL-3. Following stably expressing Ba/F3 cell lines were generated: Ba/F3-EGFR-WT, Ba/F3-EGFR-insSVD.
(§4) The cells ectopically expressing WT EGFR were plated with 10 ng/mL Millipore Culture grade EGF. The cells ectopically expressing EGFR-insSVD were plated without EGF.
(§5) 100 nL of compound was added to each well using a 100 nL pin head, and plates were incubated at 37° C. for 48 h.
(§6) Cell viability was measured by adding 30 μL of Cell Titer-Glo Luminescent Cell Viability Reagent. Plates were sealed with Perkin Elmer Top-Seal, inverted several times to mix, and immediately centrifuged at 1000 rpm for 2 min. Plates were incubated in low light conditions for 8-10 min and luminescence was measured.

Ba/F3-EGFR-insSVD cells = experiment: Proliferation assay in BA/F3 (ins SVD) cells (Cell Titer-Glo); type: cell-based
Procedure: as §1, §2, §3, §4, §5, §6

[1] = target: EGFR ins SVD (insertion of SVD between D770 and N771) (Homo sapiens, UniProt P00533, INS767SVD); experiment: Exon 20-Mutant-EGFR(D770_N771insSVD) kinase assay (TR-FRET); type: biochemical; conditions: Table 9; read-out: mutEGFR (D770_N771insSVD) kinase assay IC50
Chain of EGFR ins SVD (insertion of SVD between D770 and N771) (P00533 with tags, fused parts or gaps INS767SVD limits assumed): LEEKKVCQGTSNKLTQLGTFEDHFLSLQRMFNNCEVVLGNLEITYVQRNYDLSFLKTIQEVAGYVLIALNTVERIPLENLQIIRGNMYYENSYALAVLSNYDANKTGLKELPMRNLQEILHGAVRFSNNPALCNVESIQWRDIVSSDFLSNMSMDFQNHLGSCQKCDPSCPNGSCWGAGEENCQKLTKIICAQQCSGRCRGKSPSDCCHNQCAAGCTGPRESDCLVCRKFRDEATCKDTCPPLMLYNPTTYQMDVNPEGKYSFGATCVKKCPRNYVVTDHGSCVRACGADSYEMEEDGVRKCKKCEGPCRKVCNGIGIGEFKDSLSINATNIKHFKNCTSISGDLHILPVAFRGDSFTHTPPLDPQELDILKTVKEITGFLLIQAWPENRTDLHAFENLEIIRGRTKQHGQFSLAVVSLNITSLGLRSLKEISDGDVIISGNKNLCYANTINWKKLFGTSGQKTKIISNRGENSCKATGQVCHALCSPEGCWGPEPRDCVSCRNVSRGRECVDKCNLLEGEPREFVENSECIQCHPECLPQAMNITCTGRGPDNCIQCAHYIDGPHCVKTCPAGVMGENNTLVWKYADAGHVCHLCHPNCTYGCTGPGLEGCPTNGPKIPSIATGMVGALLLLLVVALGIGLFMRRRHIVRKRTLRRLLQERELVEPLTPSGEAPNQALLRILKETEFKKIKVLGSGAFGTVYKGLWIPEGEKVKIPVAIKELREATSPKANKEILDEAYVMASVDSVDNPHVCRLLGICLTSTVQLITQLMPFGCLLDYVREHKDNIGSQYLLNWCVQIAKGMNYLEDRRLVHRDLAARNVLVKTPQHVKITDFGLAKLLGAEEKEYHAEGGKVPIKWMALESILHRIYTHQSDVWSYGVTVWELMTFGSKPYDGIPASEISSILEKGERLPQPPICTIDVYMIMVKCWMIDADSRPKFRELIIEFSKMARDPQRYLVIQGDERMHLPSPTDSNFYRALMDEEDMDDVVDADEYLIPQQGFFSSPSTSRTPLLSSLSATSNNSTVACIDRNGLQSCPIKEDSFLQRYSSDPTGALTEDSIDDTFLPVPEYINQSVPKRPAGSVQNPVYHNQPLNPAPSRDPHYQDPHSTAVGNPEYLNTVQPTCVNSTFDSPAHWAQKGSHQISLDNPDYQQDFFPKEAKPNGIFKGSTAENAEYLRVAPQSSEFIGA

[2] = Mus musculus, BaF3, 48 h, Table 10, plated with 10 ng/mL EGF
[3] = Table 10, plated without EGF, 48 h
[4] = Mus musculus, BaF3, 48 h, Table 10, plated without EGF
[5] = Mus musculus, BaF3, Table 10, plated without EGF, 48 h

SMILES: COc1c(F)cccc1Nc1c(-c2ccncc2OCC2CCCO2)[nH]c2c1C(=O)NCC2 (single isomer, unassigned; enantiomer 1) [Example 88, 3-(3-fluoro-2-methoxyanilino)-2-{3-[(oxolan-2-yl)methoxy]pyridin-4-yl}-1,5,6,7-tetrahydro-4H-pyrrolo[3,2-c]pyridin-4-one (enantiomer 1)]
IC50 (Ba/F3-EGFR-WT cells; [2]): 388 nM
IC50 (Ba/F3-EGFR-insSVD cells; [3]): 38 nM
IC50 [1]: 0.0888 nM

SMILES: COc1c(F)cccc1Nc1c(-c2ccncc2OCC2CCCO2)[nH]c2c1C(=O)NCC2 (single isomer, unassigned; enantiomer 2) [Example 89, 3-(3-fluoro-2-methoxyanilino)-2-{3-[(oxolan-2-yl)methoxy]pyridin-4-yl}-1,5,6,7-tetrahydro-4H-pyrrolo[3,2-c]pyridin-4-one (enantiomer 2)]
IC50 (Ba/F3-EGFR-WT cells; Table 10, plated with 10 ng/mL EGF, 48 h): 252 nM
IC50 (Ba/F3-EGFR-insSVD cells; [3]): 12.8 nM
IC50 [1]: 0.108 nM

IC50 (Ba/F3-EGFR-WT cells; [2]): 251 nM
IC50 (Ba/F3-EGFR-insSVD cells; [4]): 8.81 nM
IC50 (Ba/F3-EGFR-insSVD cells; [3]): 7.48 nM and < 4.78 nM and 6.8 nM and 7.49 nM
SMILES: COC(C)(C)COc1cnccc1-c1[nH]c2c(c1Nc1cccc(F)c1C)C(=O)NCC2 [Example 21, 3-[(3-fluoro-2-methylphenyl)amino]-2-[3-(2-methoxy-2-methylpropoxy)pyridin-4-yl]-1,5,6,7-tetrahydro-4H-pyrrolo[3,2-c]pyridin-4-one]

SMILES: COCCOc1cnccc1-c1[nH]c2c(c1Nc1cccc(Cl)c1OC)C(=O)NCC2 [Example 32, 3-(3-chloro-2-methoxyanilino)-2-[3-(2-methoxyethoxy)pyridin-4-yl]-1,5,6,7-tetrahydro-4H-pyrrolo[3,2-c]pyridin-4-one]
IC50 (Ba/F3-EGFR-WT cells; [2]): 299 nM
IC50 (Ba/F3-EGFR-insSVD cells; [4]): 9.87 nM
IC50 [1]: 0.076 nM and < 0.0725 nM

SMILES: COc1c(Cl)cccc1Nc1c(-c2ccncc2OCC(C)(C)OC)[nH]c2c1C(=O)NCC2 [Example 33, 3-(3-chloro-2-methoxyanilino)-2-[3-(2-methoxy-2-methylpropoxy)pyridin-4-yl]-1,5,6,7-tetrahydro-4H-pyrrolo[3,2-c]pyridin-4-one]
IC50 (Ba/F3-EGFR-WT cells; [2]): 476 nM
IC50 (Ba/F3-EGFR-insSVD cells; [4]): 9.32 nM
IC50 [1]: 0.225 nM and 0.334 nM and 0.166 nM and 0.161 nM and 0.275 nM and < 0.0725 nM

SMILES: COC(C)(C)COc1cnccc1-c1[nH]c2c(c1Nc1cccc(Cl)c1Cl)C(=O)NCC2 [Example 34, 3-(2,3-dichloroanilino)-2-[3-(2-methoxy-2-methylpropoxy)pyridin-4-yl]-1,5,6,7-tetrahydro-4H-pyrrolo[3,2-c]pyridin-4-one]
IC50 (Ba/F3-EGFR-WT cells; [2]): 278 nM
IC50 (Ba/F3-EGFR-insSVD cells; [4]): 7 nM
IC50 [1]: 0.0946 nM

SMILES: CCc1c(F)cccc1Nc1c(-c2ccncc2OCC(C)(C)OC)[nH]c2c1C(=O)NCC2 [Example 35, 3-(2-ethyl-3-fluoroanilino)-2-[3-(2-methoxy-2-methylpropoxy)pyridin-4-yl]-1,5,6,7-tetrahydro-4H-pyrrolo[3,2-c]pyridin-4-one]
IC50 (Ba/F3-EGFR-WT cells; [2]): 428 nM
IC50 (Ba/F3-EGFR-insSVD cells; [4]): 7.98 nM
IC50 [1]: 0.185 nM

SMILES: COC(C)(C)COc1cnccc1-c1[nH]c2c(c1Nc1cccc(Cl)c1C)C(=O)NCC2 [Example 36, 3-(3-chloro-2-methylanilino)-2-[3-(2-methoxy-2-methylpropoxy)pyridin-4-yl]-1,5,6,7-tetrahydro-4H-pyrrolo[3,2-c]pyridin-4-one]
IC50 (Ba/F3-EGFR-WT cells; [2]): 529 nM
IC50 (Ba/F3-EGFR-insSVD cells; [4]): 9.55 nM
IC50 [1]: 0.194 nM

SMILES: COC(C)(C)COc1cnccc1-c1[nH]c2c(c1Nc1cccc(F)c1Br)C(=O)NCC2 [Example 37, 3-(2-bromo-3-fluoroanilino)-2-[3-(2-methoxy-2-methylpropoxy)pyridin-4-yl]-1,5,6,7-tetrahydro-4H-pyrrolo[3,2-c]pyridin-4-one]
IC50 (Ba/F3-EGFR-WT cells; [2]): 583 nM
IC50 (Ba/F3-EGFR-insSVD cells; [4]): 16 nM
IC50 [1]: 0.12 nM and 0.0795 nM and 0.107 nM and 0.0958 nM and < 0.0725 nM (2×)

SMILES: COC(C)(C)COc1cnccc1-c1[nH]c2c(c1Nc1cccc(Cl)c1OC(F)F)C(=O)NCC2 [Example 38, 3-[3-chloro-2-(difluoromethoxy)anilino]-2-[3-(2-methoxy-2-methylpropoxy)pyridin-4-yl]-1,5,6,7-tetrahydro-4H-pyrrolo[3,2-c]pyridin-4-one]
IC50 (Ba/F3-EGFR-WT cells; [2]): 466 nM
IC50 (Ba/F3-EGFR-insSVD cells; [4]): 17.5 nM
IC50 [1]: 0.13 nM

SMILES: COC(C)(C)COc1cnccc1-c1[nH]c2c(c1Nc1ccccc1Cl)C(=O)NCC2 [Example 39, 3-(2-chloroanilino)-2-[3-(2-methoxy-2-methylpropoxy)pyridin-4-yl]-1,5,6,7-tetrahydro-4H-pyrrolo[3,2-c]pyridin-4-one]
IC50 (Ba/F3-EGFR-WT cells; [2]): 661 nM
IC50 (Ba/F3-EGFR-insSVD cells; [4]): 27.5 nM
IC50 [1]: 0.104 nM

SMILES: COC(C)(C)COc1cnccc1-c1[nH]c2c(c1Nc1cc(F)cc(F)c1C)C(=O)NCC2 [Example 40, 3-(3,5-difluoro-2-methylanilino)-2-[3-(2-methoxy-2-methylpropoxy)pyridin-4-yl]-1,5,6,7-tetrahydro-4H-pyrrolo[3,2-c]pyridin-4-one]
IC50 (Ba/F3-EGFR-WT cells; [2]): 1450 nM
IC50 (Ba/F3-EGFR-insSVD cells; [4]): 50.5 nM
IC50 [1]: 0.0994 nM

SMILES: COC(C)(C)COc1cnccc1-c1[nH]c2c(c1Nc1cccc(F)c1C(F)(F)F)C(=O)NCC2 [Example 41, 3-[3-fluoro-2-(trifluoromethyl)anilino]-2-[3-(2-methoxy-2-methylpropoxy)pyridin-4-yl]-1,5,6,7-tetrahydro-4H-pyrrolo[3,2-c]pyridin-4-one]
IC50 (Ba/F3-EGFR-WT cells; [2]): 795 nM
IC50 (Ba/F3-EGFR-insSVD cells; [4]): 52.5 nM
IC50 [1]: 0.124 nM

SMILES: COC(C)(C)COc1cnccc1-c1[nH]c2c(c1Nc1ccccc1C(F)(F)F)C(=O)NCC2 [Example 42, 2-[3-(2-methoxy-2-methylpropoxy)pyridin-4-yl]-3-[2-(trifluoromethyl)anilino]-1,5,6,7-tetrahydro-4H-pyrrolo[3,2-c]pyridin-4-one]
IC50 (Ba/F3-EGFR-WT cells; [2]): 625 nM
IC50 (Ba/F3-EGFR-insSVD cells; [4]): 72.9 nM
IC50 [1]: 0.19 nM

SMILES: COC(C)(C)COc1cnccc1-c1[nH]c2c(c1Nc1cc(F)cc(F)c1OC(F)F)C(=O)NCC2 [Example 43, 3-[2-(difluoromethoxy)-3,5-difluoroanilino]-2-[3-(2-methoxy-2-methylpropoxy)pyridin-4-yl]-1,5,6,7-tetrahydro-4H-pyrrolo[3,2-c]pyridin-4-one]
IC50 (Ba/F3-EGFR-WT cells; [2]): 1880 nM
IC50 (Ba/F3-EGFR-insSVD cells; [4]): 117 nM
IC50 [1]: 0.1 nM

SMILES: COc1c(Nc2c(-c3ccncc3OCC(C)(C)OC)[nH]c3c2C(=O)NCC3)ccc(F)c1Cl [Example 44, 3-(3-chloro-4-fluoro-2-methoxyanilino)-2-[3-(2-methoxy-2-methylpropoxy)pyridin-4-yl]-1,5,6,7-tetrahydro-4H-pyrrolo[3,2-c]pyridin-4-one]
IC50 (Ba/F3-EGFR-WT cells; [2]): 2450 nM
IC50 (Ba/F3-EGFR-insSVD cells; [4]): 173 nM
IC50 [1]: 0.0922 nM and < 0.0725 nM

SMILES: COC(C)(C)COc1cnccc1-c1[nH]c2c(c1Nc1cc(F)ccc1C)C(=O)NCC2 [Example 45, 3-(5-fluoro-2-methylanilino)-2-[3-(2-methoxy-2-methylpropoxy)pyridin-4-yl]-1,5,6,7-tetrahydro-4H-pyrrolo[3,2-c]pyridin-4-one]
IC50 (Ba/F3-EGFR-WT cells; [2]): 2490 nM
IC50 (Ba/F3-EGFR-insSVD cells; [4]): 255 nM
IC50 [1]: 0.319 nM

SMILES: COCCOc1cnccc1-c1[nH]c2c(c1Nc1cccc(Cl)c1Cl)C(=O)NCC2 [Example 46, 3-(2,3-dichloroanilino)-2-[3-(2-methoxyethoxy)pyridin-4-yl]-1,5,6,7-tetrahydro-4H-pyrrolo[3,2-c]pyridin-4-one]
IC50 (Ba/F3-EGFR-WT cells; [2]): 364 nM
IC50 (Ba/F3-EGFR-insSVD cells; [4]): 15.1 nM
IC50 [1]: 0.0912 nM

SMILES: COCCOc1cnccc1-c1[nH]c2c(c1Nc1ccccc1C(F)(F)F)C(=O)NCC2 [Example 47, 2-[3-(2-methoxyethoxy)pyridin-4-yl]-3-[2-(trifluoromethyl)anilino]-1,5,6,7-tetrahydro-4H-pyrrolo[3,2-c]pyridin-4-one]
IC50 (Ba/F3-EGFR-WT cells; [2]): 3240 nM
IC50 (Ba/F3-EGFR-insSVD cells; [4]): 448 nM
IC50 [1]: 0.169 nM

SMILES: COc1c(Cl)cccc1Nc1c(-c2ccncc2OC[C@@H]2CCCN2C)[nH]c2c1C(=O)NCC2 [Example 48, 3-(3-chloro-2-methoxyanilino)-2-(3-{[(2S)-1-methylpyrrolidin-2-yl]methoxy}pyridin-4-yl)-1,5,6,7-tetrahydro-4H-pyrrolo[3,2-c]pyridin-4-one]
IC50 (Ba/F3-EGFR-WT cells; [2]): 276 nM
IC50 (Ba/F3-EGFR-insSVD cells; [4]): 5.59 nM
IC50 [1]: 0.358 nM

SMILES: Cc1c(F)cccc1Nc1c(-c2ccncc2OC[C@@H]2CCCN2C)[nH]c2c1C(=O)NCC2 [Example 49, 3-(3-fluoro-2-methylanilino)-2-(3-{[(25)-1-methylpyrrolidin-2-yl]methoxy}pyridin-4-yl)-1,5,6,7-tetrahydro-4H-pyrrolo[3,2-c]pyridin-4-one]
IC50 (Ba/F3-EGFR-WT cells; Mus musculus, BaF3, Table 10, plated with 10 ng/mL EGF, 48 h): 919 nM
IC50 (Ba/F3-EGFR-insSVD cells; [5]): 19.1 nM
IC50 [1]: 0.518 nM

SMILES: COc1c(Cl)cccc1Nc1c(-c2ccncc2OC[C@@H]2CCCO2)[nH]c2c1C(=O)NCC2 [Example 66, 3-(3-chloro-2-methoxyanilino)-2-(3-{[(2S)-oxolan-2-yl]methoxy}pyridin-4-yl)-1,5,6,7-tetrahydro-4H-pyrrolo[3,2-c]pyridin-4-one]
IC50 (Ba/F3-EGFR-insSVD cells; [5]): 4.6 nM
IC50 [1]: 0.0932 nM

SMILES: COc1c(Cl)cccc1Nc1c(-c2ccncc2OC[C@H]2CCCO2)[nH]c2c1C(=O)NCC2 [Example 67, 3-(3-chloro-2-methoxyanilino)-2-(3-{[(2R)-oxolan-2-yl]methoxy}pyridin-4-1)-1,5,6,7-tetrahydro-4H-pyrrolo[3,2-c]pyridin-4-one]
IC50 (Ba/F3-EGFR-insSVD cells; [5]): 9.33 nM
IC50 [1]: 0.0908 nM
